Patent US8993527B2, “Methods, compositions, and formulations for preventing or reducing adverse effects in a patient” (Pericor Therapeutics, Inc., priority 2005, dated 2015)

Key:
[1] = tested on: patients undergoing CABG surgery; assay: Phase 2 CABG trial: difficulty in weaning from bypass; type: in vivo, human; conditions: for WEANING TIME: Pts without Difficulty
Method: During surgery, anesthesia was maintained by continuous infusion of fentanyl and midazolam. Routine clinical parameters were recorded using standard operating room monitoring equipment. Continuous 2-lead Holter ECG and TEE data were recorded. Standard surgical procedures (e.g., aorta cross-clamping, crystalloid cardioplegia, cardiopulmonary bypass, hypothermia) were used. Anastomoses were constructed, aorta cross-clamp removed and patients were discontinued from bypass when body temperature was 37° C. The quality of anastomosis was judged by the surgeon. Difficulty in weaning from bypass was judged by need for one or more of the following: pacemaker, return to bypass, balloon pump or vasopressor administration. Hemodynamic measurements, including heart rate, arterial blood pressure, pulmonary capillary wedge pressure and cardiac output, were recorded before stemotomy, 15 and 30 min after bypass and upon chest closure. Radial artery and pulmonary artery pressures, myocardial and whole body temperature, O2 saturation, end-tidal CO2 and arterial blood gases were measured, and ECG recordings were obtained as clinically indicated. Hemodynamic variables (blood pressure, heart rate, pulmonary capillary wedge pressure) were controlled within 20% of baseline using prescribed regimens.
The incidence of adverse clinical outcomes, such as cardiac death (death of patient attributable to primarily cardiac causes, non-fatal transmural MI (as measured by the appearance of a new Q-wave on 12-lead ECG plus a CK-MB value of ≧50 units), non-transmural MI (CK-MB value of ≧50 units), congestive heart failure (low cardiac output requiring intra-aortic balloon pump or left ventricular assist device) or life-threatening dysrhythmia (ventricular fibrillation, or ventricular tachycardia requiring cardioversion or drug treatment) was compared between the placebo and treatment groups. For the diagnosis of myocardial infarction, ECG tracings and CK-MB values were assessed centrally by observers blinded to treatment. The difficulty of weaning the patient from bypass, if any, was compared between placebo and treatment groups by noting need for one or more of the following: pacemaker, return to bypass, balloon pump or use of vasopressors.
8. Difficulty in Weaning. Patients were considered to have difficulty in weaning if they needed one or more of the following interventions: pacemaker, return to bypass, balloon pump or use of vasopressors. The number of patients receiving each of the above interventions was analyzed using a X^2 and Fisher's exact test, as was the number of patients classified as having difficulty in weaning. In addition, the time to weaning (defined as time from cross-clamp removal to end of bypass) in the patients experiencing difficulty were compared by a 1-way analysis of variance.
As noted, patients were determined as being difficult to remove from cardiopulmonary bypass if they required one or more of the following interventions: insertion of a pacemaker, return to bypass, use of a balloon pump or administration of vasopressors, or another intervention which the investigation determines is indicative of difficulty in weaning. […] When a combination of the high and low dose groups were compared to placebo (Table 9b), the reduced need for vasopressor support approached statistical significance (p=0.08). […] There were no differences in any of the weaning difficulty parameters discussed above between the high and low dose groups (Table 9c).

[2] = molecular target: T1, NBTI-specific adenosine transport site (UniProt O54698); assay: [3H]-NBTI binding assay; conditions: read-out: ED50 (50% displacement of bound [3H]-NBTI); 0.5 mg neuronal membrane protein, 0.5 nM [3H]-NBTI, 30 minutes
T1 sequence (O54698 1-457): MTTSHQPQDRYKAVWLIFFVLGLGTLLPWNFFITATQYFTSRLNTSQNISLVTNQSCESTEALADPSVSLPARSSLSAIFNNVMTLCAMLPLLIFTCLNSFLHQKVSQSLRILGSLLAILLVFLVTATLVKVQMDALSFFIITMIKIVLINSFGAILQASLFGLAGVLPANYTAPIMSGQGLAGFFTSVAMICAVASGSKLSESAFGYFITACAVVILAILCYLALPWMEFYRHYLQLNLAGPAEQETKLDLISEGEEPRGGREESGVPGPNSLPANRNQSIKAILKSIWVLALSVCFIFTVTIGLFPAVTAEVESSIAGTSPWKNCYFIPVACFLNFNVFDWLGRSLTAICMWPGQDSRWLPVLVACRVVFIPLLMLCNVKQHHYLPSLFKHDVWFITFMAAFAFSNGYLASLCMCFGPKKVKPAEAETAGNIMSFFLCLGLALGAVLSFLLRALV
Method: Increasing concentrations of the test compounds were incubated for 30 minutes with 0.5 mg neuronal membrane protein together with 0.5 nM [^3 H]-NBTI in a Tris buffer (pH 7.4) at room temperature. The assays were quenched and membranes collected by rapid filtration. Filters were then solubilized and radioactivity determined by scintillation counting.

[3] = molecular target: T2, purified pig heart adenosine kinase (Sus scrofa, UniProt A0A5G2R0F5); assay: Adenosine kinase activity; type: biochemical; conditions: 0.5 μM [U14C] adenosine, 1 mM ATP, 20 minutes at 37° C.
T2 construct: 0.1 μg of purified pig heart adenosine kinase; from tissue; host or cells: pig heart
T2 sequence (A0A5G2R0F5 1-362): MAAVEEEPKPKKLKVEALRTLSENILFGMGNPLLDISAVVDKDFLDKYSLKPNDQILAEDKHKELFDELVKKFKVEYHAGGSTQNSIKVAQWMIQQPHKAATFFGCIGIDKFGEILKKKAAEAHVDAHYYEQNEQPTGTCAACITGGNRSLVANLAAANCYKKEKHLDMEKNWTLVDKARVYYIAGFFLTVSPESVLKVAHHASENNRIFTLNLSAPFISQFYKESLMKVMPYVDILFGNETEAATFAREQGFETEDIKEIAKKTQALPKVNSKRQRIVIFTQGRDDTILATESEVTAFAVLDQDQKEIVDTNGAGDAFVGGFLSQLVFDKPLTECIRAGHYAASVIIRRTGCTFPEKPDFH
Method: Inhibition of enzyme activity was determined using a 0.1 ml assay mixture containing 50 mM Tris-maleate, pH 7.0, 0.1% (w/v) BSA, 1 mM ATP, 1 mM MgCl2, 0.5 μM [U^14 C] adenosine (500 mCi/mmol) and 0.1 μg of purified pig heart adenosine kinase. Different concentrations of test compound were incubated in the assay mixture for 20 minutes at 37° C. From each reaction mixture, 20 μl portions were removed and spotted on 2^2 pieces of Whatman DE81 filter paper. The papers were then washed to remove [^14 C] adenosine in 1 mM ammonium formate followed by deionized water and finally 95% ethanol. The papers were dried, and [^14C] AMP measured by scintillation counting. Activities were determined from the amount of [^14C] AMP formed.

**Q.** What does the source list for `NC(=O)c1ncn([C@@H]2O[C@H](CO)[C@@H](O)[C@H]2O)c1N` [1 (1-110), 5-amino-1-β-D-ribofuranosyl-imidazole-4-carboxamide]?
**A.** WEANING TIME ([1]; 0.05 mg/kg/min): 20.4 +/− 2.5; WEANING TIME ([1]; 0.1 mg/kg/min): 16.3 +/− 1.9; PATIENTS WITH ANY DIFFICULTY WEANING ([1]; 0.05 + 0.10, 76 patients): 15 (19.7%); PATIENTS WITH ANY DIFFICULTY WEANING ([1]; 0.05, 41 patients): 7 (17%); PATIENTS WITH ANY DIFFICULTY WEANING ([1]; 0.10, 35 patients): 8 (23%); EC50 [2]: > 1000 µM; IC50 [3]: > 5000 µM
